Assay results published in patent publication US20060134144A1, “Mucoadhesive composition and formulation for solubilization of insoluble drugs and preparation method thereof” (priority 2002, published 2006).

Experiment: Dispersion behaviour on mixing with water
Format: physicochemical
Settings: mixed with water
Method: The size of the emulsion particles were measured by using Malvern Zetasizer (Malvern Instruments Limited, England) after preparing the emulsion by adding 3 mL of distilled water to 2 μL of thus obtained liquid formulation. An average particle size and polydispersity were obtained by measuring values for a given formulation three times (Orr, Encyclopedia of emulsion technology, 1, 369-404, 1985). The polydispersity was obtained as the variance indicated by the logarithmic scale in the logarithmic normal distribution function. The above method in measuring the particle size and the polydispersity was used throughout the following examples.
The above composition exists as semi-solid or solid at room temperature and in a refrigerator, respectively, but as liquid at or above 40° C. Dispersion with the average particle size of 530 nm was obtained when the above composition was vortexed for 10 s in water. The absorbance at 400 nm was 2.36.
Monoolein (99.5% purity) from Nu-Chek Prep (Elysian, Minn., USA) or Myverol 18-99K (monoolein content 86.6 weight %) from Danisco A/S (Copenhagen, Denmark) were mixed with water. […] Since the cubic phase had very high viscosity and floated in water, the particle size or absorbance could not be determined.

CCCCCCCC/C=C\CCCCCCCC(=O)OCC(O)CO (stereo not shown) [Monoolein (99.5% purity), Monoolein]
dispersion behaviour in water: Cubic phases were formed instead of dispersion
